Like-named read-outs stand apart in the source and are kept apart here. Blank lines part the entries; values can stand above or below the molecule they belong to.
Key:
[1] = biological target: T1, human recombinant PDE7A (hrPDE7A) (Homo sapiens, UniProt Q13946); assay: PDE-Glo Phosphodiesterase Assay, hrPDE7A inhibition; format: biochemical; details: for IC50: hrPDE7A, non-linear regression, in vitro
T1 construct: purchased SignalChem, Richmond, Canada
Procedure: (§1) Briefly, 1,5 μl of 1× PDE-Glo reaction buffer containing 10 mU of purified hrPDE4B or hrPDE7A (SignalChem, Richmond, Canada) was pipetted into 384-well plate wells (Thermo Scientific, USA). The tested compounds were dissolved in DMSO, and a serial dilution of the inhibitors was performed using 1× PDE-Glo reaction buffer. Then, 1 μL of diluted inhibitors and 2.5 μL of cAMP solution were added to each well. After 10 min of incubation in 30 °C, 2.5 μL of PDE-Glo™ Termination Buffer and 2.5 μL of PDE-Glo™ Detection Solution were added and the plate was incubated for 20 min at room temperature. Finally, 10 μL of Kinase-Glo® Reagent was pipetted to each well and after 10 min of incubation, the luminescence was measured using a microplate luminometer (POLARstar Omega, BMG LABTECH, Ortenberg, Germany). All data points are the average of two determinations.

[2] = design: method as in Wyska et al. [2007]; details: mice; ref Wyska et al. [2007]; cited from earlier work
[3] = test system: IL-12-induced murine T helper 1 (Th1) differentiation; design: method as in Bright et al. [1998]; details: dose-dependent manner; ref Bright et al. [1998]; cited from earlier work
[4] = biological target: T2, human recombinant PDE4B (hrPDE4B) (Homo sapiens, UniProt Q07343); assay: PDE-Glo Phosphodiesterase Assay, hrPDE4B inhibition; format: biochemical; details: non-linear regression, in vitro
T2 construct: purchased SignalChem, Richmond, Canada
Procedure: as §1, with “The” for “Briefly, 1,5 μl of 1× PDE-Glo reaction buffer containing 10 mU of purified hrPDE4B or hrPDE7A (SignalChem, Richmond, Canada) was pipetted into 384-well plate wells (Thermo Scientific, USA). The”

[5] = test system: plasma cAMP concentrations; design: method as in Cheng et al. [1997]; details: ref Cheng et al. [1997], cited from earlier work; for cAMP levels in mice: 10 times higher dose than that of the PDE4 inhibitors (10 mg kg^−1 p.o.); for plasma cAMP concentrations in mice: 10 mg kg^−1 p.o.
TNF-α plasma levels = assay: Plasma TNF-α levels in endotoxemic rats (ELISA); format: in vivo, Male Wistar rats; details: both doses (40 and 80 mg kg^−1 i.v.) with LPS, 90 min, p < 0.05
Procedure: (§2) All compounds were directly dissolved in 0.9% sterile saline and used within 1 day of preparation. The animals were divided into five groups (n = 3–4). […] All injections (1 mL kg^−1) were given to the tail vein of the rat under isoflurane anaesthesia. […] Subsequently, samples were kept on ice and centrifuged for 10 min at 3000×g at 4 °C (EBA 12 R, Hettich, Germany). The individual plasma samples were harvested and stored at −80 °C until analysis.
Plasma TNF-α levels were measured by rat TNF-α Quantikine ELISA kit (R&D Systems, Minneapolis, MN, USA) according to the manufacturer’s protocol. The limit of quantification was 12.5 pg mL^−1.
(§3) The peak cAMP and TNF-α plasma levels following administration of LPS alone or LPS simultaneously with both doses of each compound were compared using a one-way ANOVA and Tukey’s HSD post hoc test. The normality of data distribution was checked by Shapiro–Wilk test. The relationship between decimal logarithms of peak cAMP and TNF-α plasma concentrations was verified by least squares linear regression analysis. All statistical analyses were performed using Statistica v. 12 (StatSoft Inc., USA). The significance level p was set at 0.05.

[6] = Pharmacokinetics after i.v. administration to endotoxemic rats (compartmental modelling); format: in vivo, Male Wistar rats
Procedure: as §2
Then, the samples were extracted with 3 mL of dichloromethane for 20 min on a shaker (VXR Vibrax, IKA, Germany). Subsequently, all tubes were centrifuged (2000×g, 15 min) and organic layers were transferred to new glass tubes and evaporated under gentle stream of nitrogen at 37 °C. Dry residues were dissolved in 100 μL of mobile phase and placed in the autosampler vials. The volume of injection was set to 50 μL. The HPLC system (LaChrom Elite, Merck-Hitachi, Darmstadt, Germany) consisted of an L-2130 pump, an L-2200 autosampler, an L-2450 diode array detector and an L-2350 column oven. EZChrome Elite v. 3.2 (Merck-Hitachi) software was used for data acquisition. The analysis was performed on a LiChrospher 100 RP-18 column (250 mm × 4 mm) with a particle size of 5 μm protected with a LiChroCART (4 mm × 4 mm) guard column (Merck, Germany). The mobile phase consisted of dioxan, acetonitrile and aqueous solution of acetic acid (pH = 3.0) mixed at the ratio of 6.5:6.5:87 (v/v/v), respectively, and pumped at a flow rate of 1.2 mL min^−1. Analytical wavelength was set to 275 nm and temperature of separation was 35 °C.
To this end, one- or two-compartment pharmacokinetic models with linear or Michaelis–Menten type saturable elimination from the central compartment were tested. Both dose levels in each case were simultaneously fitted to obtain a single set of parameters. The final pharmacokinetic models for PTX and (±)-LSF were selected on the basis of visual inspection of the fitting, examination of residuals, parameter precision, Akaike Information Criteria (AIC), Bayesian Information Criteria (BIC) and analysis of the correlation matrix. Pharmacokinetic analysis was performed using Phoenix WinNonlin v. 6.3 (Pharsight Corp, Certara, St. Louis, MO, USA).

[7] = test system: cAMP levels in rat plasma; assay: PK/PD (IDR model II) of plasma cAMP in LPS-challenged rats; format: in vivo, Male Wistar rats; details: for cAMP levels in rat plasma after administration: 40 or 80 mg kg^−1 i.v. with LPS; for IC50: Rattus norvegicus
Procedure: as §2
The levels of cAMP in rat plasma were measured using the same HPLC system and a fluorescence detector (model FL-2485). The analysis was performed after incubation of plasma with 2-chloroacetaldehyde as a derivatization reagent in elevated temperature to form the fluorescing derivative—1,N^6-etheno-cAMP. To 100 μL of plasma (or plasma spiked with water standard solution of cAMP), 15 μL of 2 M 2-chloroacetaldehyde solution and 50 μL of 0.5 M acetate buffer (pH = 4.5) were added to a snap-cap tubes. Samples were then vortex-mixed (Reax top, Heidolph, Germany) for 20 s and incubated at 80 °C for 20 min. Thereafter, the reaction mixture was cooled on ice, the samples were centrifuged (3000×g, 10 min) and 100 μL of supernatants was placed in the autosampler vials. The volume of injection was 50 μL. The separation was performed at isocratic conditions at 35 °C using the mobile phase composed of 20 mM citric-phosphate buffer (pH = 3.2) and methanol mixed at the ratio of 91:9 (v/v) and pumped at a flow rate of 1.3 mL min^−1. The excitation and emission wavelengths were set to 280 and 420 nm, respectively. In these conditions, the retention time of 1,N^6-etheno-cAMP was 6 min.
Changes in plasma cAMP concentrations (CcAMP) over time following each compound administration may be described by the following equation:
1 dCcAMP/dt=kin−kout⋅It⋅CcAMP
3 It=1−Imax⋅Cp^γ/IC50^γ+Cp^γ
The second approach assumes that both compounds under investigation act with different potencies. Based on the results of the in vitro study, an additive interaction model was used (Eq. 4):
I max and γ in Eqs. (3) and (4) were fixed to 1 during fitting procedure.
as §3

cAMP plasma levels = details: cited from earlier work
[8] = test system: plasma cAMP concentration; design: method as in Tanahashi et al. [1999]; details: ref Tanahashi et al. [1999]; cited from earlier work
[9] = test system: plasma cAMP concentrations; assay: Plasma cAMP in rats with endotoxemia after i.p. theophylline (own unpublished data); format: in vivo; details: i.p. 50 mg kg^−1, 0.5 h after administration
[10] = Interaction indirect response model II, rats challenged with LPS, i.v., read-out: IC50 (plasma concentration producing 50% of maximum inhibition of cAMP kout), final estimate (CV%)
[11] = interaction IDR model II, endotoxemic rats, read-out: IC50 calculated using PK/PD model after conversion to

T1 sequence (Q13946 whole entry): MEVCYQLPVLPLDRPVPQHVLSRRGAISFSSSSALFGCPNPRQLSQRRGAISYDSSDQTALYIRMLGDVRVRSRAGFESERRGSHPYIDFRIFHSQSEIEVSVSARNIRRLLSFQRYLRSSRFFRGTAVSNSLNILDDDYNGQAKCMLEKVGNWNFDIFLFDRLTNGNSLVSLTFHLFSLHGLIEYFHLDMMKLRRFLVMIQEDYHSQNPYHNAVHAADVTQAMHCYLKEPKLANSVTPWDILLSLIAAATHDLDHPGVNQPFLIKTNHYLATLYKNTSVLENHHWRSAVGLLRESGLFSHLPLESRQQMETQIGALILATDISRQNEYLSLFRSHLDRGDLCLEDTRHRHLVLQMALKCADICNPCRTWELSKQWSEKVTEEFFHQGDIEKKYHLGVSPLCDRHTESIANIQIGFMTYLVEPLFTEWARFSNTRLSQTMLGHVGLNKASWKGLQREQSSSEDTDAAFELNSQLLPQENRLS
T2 sequence (Q07343 whole entry): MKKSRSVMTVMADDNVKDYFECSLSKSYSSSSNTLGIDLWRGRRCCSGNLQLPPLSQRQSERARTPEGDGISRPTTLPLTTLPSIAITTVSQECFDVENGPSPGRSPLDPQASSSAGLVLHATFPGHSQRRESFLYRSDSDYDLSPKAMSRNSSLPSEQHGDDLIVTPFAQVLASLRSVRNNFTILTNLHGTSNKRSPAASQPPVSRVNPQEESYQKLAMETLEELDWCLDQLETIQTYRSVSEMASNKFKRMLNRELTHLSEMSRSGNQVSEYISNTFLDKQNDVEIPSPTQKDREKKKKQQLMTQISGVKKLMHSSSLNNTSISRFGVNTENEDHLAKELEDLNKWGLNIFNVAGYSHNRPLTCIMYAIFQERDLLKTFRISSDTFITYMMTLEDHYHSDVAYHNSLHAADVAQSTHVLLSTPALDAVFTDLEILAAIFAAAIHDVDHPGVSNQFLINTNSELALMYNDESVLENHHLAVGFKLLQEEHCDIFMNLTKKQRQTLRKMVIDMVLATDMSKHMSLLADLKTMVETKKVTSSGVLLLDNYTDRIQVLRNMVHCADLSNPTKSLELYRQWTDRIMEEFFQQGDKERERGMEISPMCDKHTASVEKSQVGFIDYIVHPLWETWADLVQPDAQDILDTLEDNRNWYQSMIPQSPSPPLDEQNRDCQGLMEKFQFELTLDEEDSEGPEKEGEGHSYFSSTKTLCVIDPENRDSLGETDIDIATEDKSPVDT

IC50 [1]: 266 µM
IC50 [4]: 49.1 µM
SMILES: C[C@@H](O)CCCCn1c(=O)c2c(ncn2C)n(C)c1=O [R-(-)-LSF]
Km [2]: 15.08 mg/L
Vmax [2]: 2.33 mg/min/kg
inhibition of IL-12-induced murine Th1 differentiation [3]: inhibited

SMILES: CCOC(=O)C1=C[C@]2(CC)CCCN3CCc4c(n1c1ccccc41)[C@@H]32 [vinpocetine]
cAMP levels in mice [5]: failed to alter cAMP levels significantly

SMILES: OCCN(CCO)c1nc(N2CCCCC2)c2nc(N(CCO)CCO)nc(N3CCCCC3)c2n1 [dipyridamole]
cAMP levels in mice [5]: failed to alter cAMP levels significantly

SMILES: COc1ccc(C2CNC(=O)NC2)cc1O[C@H]1C[C@@H]2CC[C@H]1C2 [CP-80,633]
plasma cAMP concentrations in mice [5]: increased plasma cAMP concentrations

IC50 [1]: > 500 µM
activity as inhibitor of hrPDE7A ([1]; in vitro assay): ineffective
IC50 [7, 10]: 4.48 µg/mL
SMILES: CC(=O)CCCCn1c(=O)c2c(ncn2C)n(C)c1=O [PTX, 1-(5-oxohexyl)-3,7-dimethylpurine-2,6-dione]
TNF-α concentrations in plasma of endotoxemic rats (TNF-α plasma levels): significant decrease
half-life ([6]; male, Wistar, rat, plasma, iv, rats, i.v., read-out: elimination half-life (t0.5)): 16.4 min
k el ([6]; male, Wistar, rat, plasma, iv, read-out: ke (rate constant for disappearance of parent compound), final estimate (CV%) (converted)): 0.000933 s⁻¹
cAMP levels in rat plasma after administration [7]: increase in cAMP levels in rat plasma in a dose-dependent manner
IC50 [7, 11]: 16.1 µM
cAMP plasma levels elevation compared to the placebo group (cAMP plasma levels; healthy subjects, i.v. infusion 300 mg in 1 h, measured 1 h from beginning of infusion, ref Kruuse et al. [2000]): approximately 50%

SMILES: CN(C(=O)CCCOc1ccc2[nH]c(=O)ccc2c1)C1CCCCC1 [cilostamide]
plasma cAMP concentration in dogs [8]: no

SMILES: COc1ccc2[nH]cc(CCNC(C)=O)c2c1 [melatonin]
cAMP plasma levels in humans (cAMP plasma levels; administered orally, 1 h following administration, ref Zhdanova and Raz [1999]): significantly augmented

IC50 [1]: 77.7 µM
IC50 [4]: 46.6 µM
SMILES: CC(C)Cn1c(=O)n(C)c(=O)c2[nH]cnc21 [IBMX, 1-methyl-3-(2-methylpropyl)-7H–purine-2,6-dione]

lower in vivo IC50 value compared to PTX ([7]; PK/PD model, rats): approximately 20%
IC50 [7, 10]: 3.43 µg/mL
SMILES: CC(O)CCCCn1c(=O)c2c(ncn2C)n(C)c1=O (racemic) [(±)-LSF, (±)-1-(5-hydroxyhexyl)-3,7-dimethylpurine-2,6-dione]
TNF-α concentrations in plasma of endotoxemic rats (TNF-α plasma levels): significant decrease
VLSF (volume of (±)-LSF compartment), final estimate (CV%) ([6]; (±)-LSF parent drug, i.v. 40 and 80 mg kg^−1, endotoxemic rats, one-compartment Michaelis-Menten model): 1.22 (3.44) L kg^−1
Km ([6]; male, Wistar, rat, plasma, iv, (±)-LSF parent drug, i.v., endotoxemic rats, read-out: Km (drug concentration at which elimination rate is half-maximal), final estimate (CV%)): 6.02 µg/mL
cAMP levels in rat plasma after administration [7]: increase in cAMP levels in rat plasma in a dose-dependent manner
IC50 [7, 11]: 12.2 µM
peak cAMP level in comparison with the group receiving LPS only ([7]; dose of 40 mg kg^−1 i.v. with LPS 1 mg kg^−1, p > 0.05): did not increase

SMILES: CC(=O)Nc1ccc(-c2c[nH]c(=O)cn2)cc1 [SKF-94,120]
cAMP levels in mice [5]: failed to alter cAMP levels significantly

SMILES: Cn1c(=O)c2[nH]cnc2n(C)c1=O [theophylline]
plasma levels of cAMP ([5]; mice, orally 100 mg kg^−1, 20 min post-dose): 296.9 pmol/mL
plasma concentrations of cAMP [9]: 228.22 pmol/mL

SMILES: CCCSc1nc(N[C@@H]2C[C@H]2c2ccc(F)c(F)c2)c2nnn([C@@H]3C[C@H](OCCO)[C@@H](O)[C@H]3O)c2n1 [ticagrelor]
levels of cAMP in treated patients (cAMP plasma levels; patients, ref Li et al. [2017]): Elevated levels of cAMP

SMILES: CCCOc1ccccc1-c1nc2nn[nH]c2c(=O)[nH]1 [zaprinast]
cAMP levels in mice [5]: failed to alter cAMP levels significantly

IC50 [1]: 328 µM
IC50 [4]: 52.5 µM
SMILES: C[C@H](O)CCCCn1c(=O)c2c(ncn2C)n(C)c1=O [S-(+)-LSF]

SMILES: COc1ccc(C2CNC(=O)C2)cc1OC1CCCC1 (centres unmarked) [rolipram]
plasma cAMP concentrations in mice [5]: increased plasma cAMP concentrations
plasma cAMP concentration in dogs [8]: elevated plasma cAMP concentration in dogs in a dose-dependent manner
